Results as given in BindingDB's records for doi:10.1021/acs.jmedchem.8b00159 (China Pharmaceutical University, 2018).

Tests used:
[1] = target: T1, Isocitrate dehydrogenase [NADP] cytoplasmic (Homo sapiens, UniProt O75874); experiment: Inhibition of IDH1 R132C mutant (unknown origin) assessed as reduction in NADPH consumption using alpha-KG as substrate incubated for 60 mins by diaphorase and resazurin dye based assay
Target sequence in this assay (O75874 2-414 R132C limits assumed): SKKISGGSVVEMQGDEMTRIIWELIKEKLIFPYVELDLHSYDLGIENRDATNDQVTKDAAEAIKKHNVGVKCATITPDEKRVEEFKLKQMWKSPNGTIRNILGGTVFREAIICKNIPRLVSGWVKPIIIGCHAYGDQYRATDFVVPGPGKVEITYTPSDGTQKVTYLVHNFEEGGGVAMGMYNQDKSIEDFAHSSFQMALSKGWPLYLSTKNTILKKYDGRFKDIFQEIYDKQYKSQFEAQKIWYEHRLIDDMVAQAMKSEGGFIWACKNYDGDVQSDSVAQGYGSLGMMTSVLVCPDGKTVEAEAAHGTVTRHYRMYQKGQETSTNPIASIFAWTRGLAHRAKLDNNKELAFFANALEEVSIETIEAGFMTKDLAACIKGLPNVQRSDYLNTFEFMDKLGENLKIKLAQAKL

[2] = target: T1, Isocitrate dehydrogenase [NADP] cytoplasmic; experiment: Inhibition of IDH1 R132H mutant (unknown origin) assessed as reduction in NADPH consumption using alpha-KG as substrate incubated for 60 mins by diaphorase and resazurin dye based assay
Target sequence in this assay (O75874 2-414 R132H limits assumed): as the sequence (O75874 2-414 R132C limits assumed) above, with C131H counted along it

[3] = target: T2, Isocitrate dehydrogenase [NADP], mitochondrial (Homo sapiens, UniProt P48735); experiment: Inhibition of IDH2 R140Q mutant (unknown origin) assessed as reduction in NADPH consumption using alpha-KG as substrate incubated for 60 mins by diaphorase and resazurin dye based assay
T2 sequence (P48735 whole entry): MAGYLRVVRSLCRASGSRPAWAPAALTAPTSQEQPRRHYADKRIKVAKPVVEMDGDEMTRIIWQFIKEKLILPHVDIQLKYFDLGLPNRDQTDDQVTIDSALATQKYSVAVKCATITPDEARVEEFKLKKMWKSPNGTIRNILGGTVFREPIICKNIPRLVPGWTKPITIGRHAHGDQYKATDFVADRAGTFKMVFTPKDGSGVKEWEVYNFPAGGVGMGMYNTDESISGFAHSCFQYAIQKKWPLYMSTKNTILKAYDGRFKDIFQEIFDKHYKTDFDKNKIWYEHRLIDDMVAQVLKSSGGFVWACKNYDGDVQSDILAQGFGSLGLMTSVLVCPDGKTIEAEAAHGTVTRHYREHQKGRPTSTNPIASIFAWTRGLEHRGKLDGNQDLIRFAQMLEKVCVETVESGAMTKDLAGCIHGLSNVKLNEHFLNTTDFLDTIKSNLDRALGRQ

Measured: IC50

CC(F)(F)c1cccc(-c2nc(NC3CCC(F)(F)C3)nc(NC3CCC(F)(F)C3)n2)n1 (configuration not stated) [US10028961, Compound 105]
< 50 nM: all assays above

C[C@@H](Nc1nc(N[C@H](C)C2CC2)nc(-n2ccc(C(F)(F)F)n2)n1)C1CC1 [US10028961, Compound 121]
< 50 nM: all assays above

FC1(F)CC(Nc2nc(NC3CC(F)(F)C3)nc(-c3nc(C(F)(F)F)cs3)n2)C1 [US10028961, Compound 128]
< 50 nM: all assays above

FC1(F)CCC(Nc2nc(NC3CCC(F)(F)CC3)nc(-c3cncc(C(F)(F)F)n3)n2)CC1 [US10028961, Compound 160]
< 50 nM: all assays above
